Assays:
Type in all cases: in vivo
[1] = test system: C57BL/6 mice; assay: Alloxan induction of diabetes, blood glucose levels by day 28; conditions: one i.v. dose Alloxan 70 mg/kg, day 28, n=222
Method: 8-week-old female mice were I.V. injected with β cell toxin Alloxan (Sigma) at 70 mg/kg body weight. Tail vein blood glucose was measured daily or twice a week with Precision Xtra Glucose Meter (Abbott Diabetes Care Inc.) with a maximum reading of 500 mg/dL Tamoxifen (TM, Sigma) was prepared at 20 mg/mL in corn oil (Sigma). For tracing studies in adult mice, a total of 20 mg of TM was given […] in five doses (each 4 mg) over a 2-week period. Mice rendered diabetic (>300 mg/dL) over a period of 28 days were used in subsequent experiments.
This example investigates whether Sox9^+ pancreatic ductal cells could give rise to insulin-producing β cells in adult diabetic mice after GE treatment, using non-autoimmune Sox9^CreERT2R26^mT/mG C57BL/6 mice. First, a β cell neogenesis mouse model in non-autoimmune diabetic C57BL/6 mice was established. 8 week-old adult female C57BL/6 mice were induced to develop diabetes by one intravenous injection of Alloxan (70 mg/kg body weight) as previously described (14, 27). Mice developed variable levels of hyperglycemia, including mild (<300 mg/dL), medium (300-450 mg/dL) and high hyperglycemia (>450 mg/dL). C57BL/6 mice (n=222) were induced to render diabetic by intravenously injecting one dose of Alloxan (70 mg/kg body weight) at day 0. Blood glucose (BG) concentrations in mice were measured twice a week for 4 weeks.

[2] = test system: pre-existing insulin-producing β cells; assay: Lineage tracing of pre-existing β cells in Ins1CreERT R26mT/mG mice, long-term low-dose GE; conditions: non-diabetic Ins1CreERT R26mT/mG mice, TM 20 mg in five doses over 2 weeks
Method: 8 weeks old female Ins1^CreERTR26^mT/mG mice were first given I.P. injection of Tamoxifen™ every two days over a 2-week period to induce EGFP expression and label the pre-existing β cells. Thereafter, mice were induced to develop diabetes with Alloxan, and mice with medium or high hyperglycemia were treated with GE or PBS control. At the end of the experiments, the pancreases were harvested and stained for insulin and EGFP, and merged staining was also shown. Nuclei were labeled by DAPI. The percentage of EGFP^+Ins^+ cells amongst total Insulin^+ cells was calculated. Normal non-diabetic mice were used as a control for checking EGFP labeling efficiency.
(§1) 8-week-old female mice were I.V. injected with β cell toxin Alloxan (Sigma) at 70 mg/kg body weight. Tail vein blood glucose was measured daily or twice a week with Precision Xtra Glucose Meter (Abbott Diabetes Care Inc.) with a maximum reading of 500 mg/dL Tamoxifen (TM, Sigma) was prepared at 20 mg/mL in corn oil (Sigma). […]
Percentage of EGFP^+Sox9^+ cells was determined by the number of EGFP^+Sox9^+ cells divided by the total number of Sox9^+ cells. Cells were counted in ten random fields of view of a tissue section. […] To quantify Sox9/EGFP^+Ins^+ cells among ductal tubes, all Sox9/EGFP^+ ductal cells co-expressing insulin in ducts were counted on a section. […] Average count of each mouse was calculated. […]

[3] = test system: Sox9+ pancreatic ductal cells; assay: Lineage tracing of Sox9+ ductal cells in Sox9CreERT2 R26mT/mG mice, long-term low-dose GE (islets); conditions: Sox9CreERT2 R26mT/mG C57BL/6 mice, TM 20 mg in five doses over 2 weeks
Method: 8 weeks old female Sox9^CreERT2 R26^mT/mG mice were first injected with Tamoxifen™ to label the Sox9/EGFP^+ cells, then the mice were induced to develop diabetes and treated with PBS or GE and monitored as described in FIG. 2A. At the end of experiments, pancreases were stained for Insulin and EGFP, and merged staining was also shown.
as §1
Percentage of EGFP^+Sox9^+ cells was determined by the number of EGFP^+Sox9^+ cells divided by the total number of Sox9^+ cells. Cells were counted in ten random fields of view of a tissue section. To quantify the number of lineage-labeled Insulin^+ cells, all Insulin^+ cells and Ins/EGFP^+Ins^+ cells on a section were counted, and then the percentage of Ins/EGFP^+Ins^+ cells amongst total Insulin^+ cells was determined. To quantify the number of lineage-labeled Insulin^+ cells arising from Sox9^+ cells, all Insulin^+ cells and Sox9/EGFP^+Ins^+ cells on a section were counted, and then the percentage of Sox9/EGFP^+Ins^+ cells among total Insulin^+ cells was determined. […] Average count of each mouse was calculated. […]

| SMILES | Mouse No. with high hyperglycemia (BG ≥ 450 mg/dL) [1] | Mouse No. with medium hyperglycemia (300 ≤ BG < 450 mg/dL) [1] | Mouse No. with mild hyperglycemia (BG < 300 mg/dL) [1] | Percentage of mice with high hyperglycemia (BG ≥ 450 mg/dL) [1] [%] | Percentage of mice with medium hyperglycemia (300 ≤ BG < 450 mg/dL) [1] [%] | Percentage of mice with mild hyperglycemia (BG < 300 mg/dL) [1] [%] | Pre-existing β cells in the islets labeled with EGFP [2] | Pancreatic Sox9-expression ductal epithelial cells labeled with EGFP [3] |
| --- | --- | --- | --- | --- | --- | --- | --- | --- |
| O=C1NC(=O)C(=O)C(=O)N1 [Alloxan] | 83 | 101 | 38 | 38 | 45 | 17 |  |  |
| CC/C(=C(\c1ccccc1)c1ccc(OCCN(C)C)cc1)c1ccccc1 [TM, Tamoxifen] |  |  |  |  |  |  | more than 90% | over 90% |
